Results taken from paper PMC4007695 (Cell reports, 2013).

Tests used:
[1] = target: as-TOR2 (TOR2 kinase, analog-sensitive allele) (Saccharomyces cerevisiae, UniProt P32600, L2178A); experiment: in vitro kinase assay of purified TORC2 at […] ATP; assay type: biochemical
wt-TOR2 (TOR2 kinase) = wt-TOR2 (TOR2 kinase) (Saccharomyces cerevisiae, UniProt P32600); experiment: in vitro kinase assay of purified TORC2 at […] ATP; assay type: biochemical

Cn1c(=O)n(-c2ccc(C(C)(C)C#N)cc2)c2c3cc(-c4cnc5ccccc5c4)ccc3ncc21 [BEZ235]
IC50 [1]: 50 nM
IC50 (wt-TOR2 (TOR2 kinase)): 111 nM
